Laboratory results as given in patent US20020045595A1, “N6 heterocyclic 8-modified adenosine derivatives” (priority 1999, published 2002).
pKi: −log10 of the molar value.

How the values were obtained:
[1] = target: T1, A1 receptor (Sus scrofa, UniProt I3LEN5); experiment: Competitive binding assay, pig striatum membranes, [3H]CPX; conditions: pig striatum membrane prep, antagonist [3H]CPX 2 nM
T1 sequence (I3LEN5 1-326): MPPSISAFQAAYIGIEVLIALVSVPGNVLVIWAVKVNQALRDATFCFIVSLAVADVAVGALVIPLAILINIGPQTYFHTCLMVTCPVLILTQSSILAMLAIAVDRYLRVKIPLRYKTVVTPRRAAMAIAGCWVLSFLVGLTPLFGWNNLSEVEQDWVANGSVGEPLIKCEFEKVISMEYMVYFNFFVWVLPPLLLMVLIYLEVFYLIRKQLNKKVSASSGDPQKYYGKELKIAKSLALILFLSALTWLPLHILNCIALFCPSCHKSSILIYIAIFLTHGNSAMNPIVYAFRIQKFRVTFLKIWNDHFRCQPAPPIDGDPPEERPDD
Procedure: Pig striatum were prepared by homogenation in 50 mM Tris buffer ( 5x volume of tissue mass pH=7.4). After centrifugation at 19,000 rpm for 25 minutes at 4° C., the supernatant was discarded, and the process was repeated twice. Compositions of this invention were assayed to determine their affinity for the A1 receptor in a pig striatum membrane prep or a DDT1 membrane prep. Briefly, 0.2 mg of pig striatal membranes or DDT1 cell membranes were treated with adenosine deaminase and 50 mM Tris buffer (pH=7.4) followed by mixing. To the pig membranes was added 2 μL of serially diluted DMSO stock solution of the compounds of this invention at concentrations ranging from 100 microM to 10 nM. The control received 2 microL of DMSO alone, then the antagonist [^3H] 8-cyclopentylxanthine (CPX) for pig striatum or the agonist [3H] 2-chloro-6-cyclopentyladenosine (CCPA) for DDT1 membranes in Tris buffer (50 mM, pH of 7.4) was added to achieve a final concentration of 2 nM. After bation at 23 C. for 2 h, then the solutions were filtered using a membrane harvester using iple washing of the membranes (3 x). The filter disks were counted in scintillation cocktail rding the amount of displacement of tritiated CPX or by the competitive binding ositions of this invention. Greater than a 5 point curve was used to generate Ki's and the er of experiments is indicated in the column marked in Table 1, below: […]

[2] = target: T2, A1 AdoR (Mesocricetus auratus, UniProt A0A1U8BVR4); experiment: A1-agonist stimulated [35S]GTPγS binding assay, DDT1 membranes; assay type: biochemical, hamster; conditions: [35S]GTPγS binding normalized to the full agonist CPA
T2 construct: endogenous in cells; host or cells: DDT1 (DDT) hamster vas deferens smooth muscle cells, membrane preparation
T2 sequence (A0A1U8BVR4 1-326): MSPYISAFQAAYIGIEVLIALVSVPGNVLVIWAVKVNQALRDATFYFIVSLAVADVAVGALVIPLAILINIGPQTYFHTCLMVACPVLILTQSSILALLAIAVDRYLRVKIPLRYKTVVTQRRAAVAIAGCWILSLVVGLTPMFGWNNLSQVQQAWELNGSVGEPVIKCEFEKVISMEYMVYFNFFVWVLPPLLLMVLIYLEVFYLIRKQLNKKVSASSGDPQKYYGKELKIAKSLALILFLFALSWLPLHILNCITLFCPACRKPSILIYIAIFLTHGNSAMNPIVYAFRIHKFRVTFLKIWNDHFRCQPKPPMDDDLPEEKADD
Procedure: (§1) DDT cells (hamster vas deferens smooth muscle cell line) were grown as monolayers in petri dishes using Dulbecco's Modified Eagle's Medium (DMEM) containing 2.5 μg ml^−1 amphotericin B, 100 U ml^−1 penicillin G, 0.1 mg ml^−1 streptomycin sulfate and 5% fetal bovine serum in a humidified atmosphere of 95% air and 5% CO2. Cells were subcultured twice weekly by dispersion in Hank's Balanced Salt Solution (HBSS) without the divalent cations and containing 1 mM EDTA. The cells were then seeded in growth medium at a density of […] per plate and experiments were performed 4 days later at approximately one day preconfluence.
Attached cells were washed twice with HBSS (2×10 ml), scraped free of the plate with the aid of a rubber policeman in 5 ml of 50 mM Tris-HCl buffer pH 7.4 at 4° C. and the suspension homogenized for 10 s. The suspension was then centrifuged at 27,000 x g for 10 min. The pellet was resuspended in homogenization buffer by vortexing and centrifuged as described above. The final pellet was resuspended in 1 vol of 50 mM Tris-HCl buffer pH 7.4 containing 5 mM MgCl2 for A1 AdoR assays. For the [^35S]GTPγS binding assay the final pellet was resuspended in 50 mM Tris-HCl pH 7.4 containing 5 mM MgCl2, 100 mM NaCl and 1 mM dithiothreitol. This membrane suspension was then placed in liquid nitrogen for 10 min, thawed and used for assays. The protein content was determined with a Bradford™ Assay Kit using bovine serum albumin as standard.
A1-agonist stimulated [^35S] GTPγS binding was determined by a modification of the method described by Giersckik et al. (1991) and Lorenzen et al. (1993). […] Nonspecific binding was determined by the addition of 10 μM GTPγS. […] Previous reports have shown that agonist stimulated [^35S]GTPγS binding was dependent on the presence of GDP (Gierschik et al., 1991; Lorenzen et al., 1993; Traynor & Nahorski, 1995). […] In saturation experiments, 0.5 nM [^35S]GTPγS was incubated with 0.5-1000 nM GTPγS. At the end of the incubation, each suspension was filtered and the retained radioactivity determined as described above.

[3] = system: A1 adenosine receptor (DDT1 cells); experiment: cAMP assay (SPA) in DDT1 cells with forskolin; assay type: cell-based, hamster; conditions: 5 μM forskolin; for cAMP: rolipram 50 μM, normalized to the full agonist CPA
Procedure: as §1
A scintillation proximity assay (SPA) using rabbit antibodies directed at cAMP using an added tracer of adenosine 3′,5′-cyclic phosphoric acid 2′-O-succinyl-3-[^125I] iodotyrosine methyl ester and fluoromicrospheres containing anti-rabbit specific antibodies as described by Amersham Pharmacia Biotech (Biotrak cellular communication assays). Briefly, DDT1 cells were cultured in clear bottomed 96 well microtiter plates with opaque wells at concentrations between 10^4 to 10^6 cells per well in 40 μl of HBSS at 37° C. (5% CO2 and 95% humidity). The partial or full A1 agonists (5 μl )of this invention were incubated at various concentrations with the DDT1 cells in the presence of rolipram (50 μM), and 5 μM forskolin for 10 min at 37° C. The cells were immediately lysed by treatment 5 μl of 10% dodecyltrimethylammonium bromide followed by shaking using microplate shaker. After incubation of the plate for 5 minutes, an immunoreagent solution (150 μl containing equal volumes of tracer, antiserum, and SPA fluorospheres) was added to each well followed by sealing the plate. After 15-20 h at 23° C., the amount of bound [^125I] cAMP to the fluoromicrospheres was determined by counting in a microtitre plate scintillation counter for 2 minutes. Comparison of counts with standard curves generated for cAMP using a similar protocol afforded the cAMP present after cell lysis.

Compound | pKi [1] | GIPγS [2] [%] | cAMP [3] [%] | forskolin induced cAMP generation [3]
CCNc1nc2c(N[C@@H]3CCOC3)ncnc2n1[C@@H]1O[C@H](CO)[C@@H](O)[C@H]1O [Compound 5, 2-{6-[((3 R)oxolan-3-yl)amino]-8-(ethylamino)purin-9-yl}(4 S,2 R,3 R,5 R)-5-(hydroxymethyl)oxolane-3,4-diol] | 6.86 | 89 | – | –
OC[C@H]1O[C@@H](n2c(NCc3ccccc3)nc3c(N[C@@H]4CCOC4)ncnc32)[C@H](O)[C@@H]1O [Compound 10, 2-{6-[((3 R)oxolan-3-yl)amino]-8-[benzylamino]purin-9-yl}(4 S,2 R,3 R,5 R)-5-(hydroxymethyl)oxolane-3,4-diol] | 5.13 | – | – | –
CC(C)Nc1nc2c(N[C@@H]3CCOC3)ncnc2n1[C@@H]1O[C@H](CO)[C@@H](O)[C@H]1O [Compound 11, 2-{6-[((3 R)oxolan-3-yl)amino]-8-[(methylethyl)amino]purin-9-yl}(4 S,2 R,3 R,5 R)-5-(hydroxymethyl)oxolane-3,4-diol] | – | 68 | 37 | –
CNc1nc2c(NC3CCOC3)ncnc2n1C1OC(CO)C(O)C1O (stereo not drawn) [Compound 7] | 6.10 | – | – | –
CCCCNc1nc2c(N[C@@H]3CCOC3)ncnc2n1[C@@H]1O[C@H](CO)[C@@H](O)[C@H]1O [Compound 9, 2-{6-[((3 R)oxolan-3-yl)amino]-8-(butylamino)purin-9-yl}(4S,2 R,3 R,5 R)-5-(hydroxymethyl)oxolane-3,4-diol] | 5.55 | – | – | –
CCCNc1nc2c(N[C@@H]3CCOC3)ncnc2n1[C@@H]1O[C@H](CO)[C@@H](O)[C@H]1O [Compound 8, 2-{6-[((3 R)oxolan-3-yl)amino]-8-(propylamino)purin-9-yl}(4 S,2 R,3 R,5 R)-5-(hydroxymethyl)oxolane-3,4-diol] | 5.98 | – | – | –
OC[C@H]1O[C@@H](n2cnc3c(NC4CCCC4)ncnc32)[C@H](O)[C@@H]1O [CPA, N-6-cyclopentyladenosine, reference compound] | – | – | 100 | back to basal levels
C=CCNc1nc2c(N[C@@H]3CCOC3)ncnc2n1[C@@H]1O[C@H](CO)[C@@H](O)[C@H]1O [Compound 12, 2-{6-[((3 R)oxolan-3-yl)amino]-8-(prop-2-enylamino)purin-9-yl}(4 S,2 R,3 R,5 R)-5-(hydroxymethyl)oxolane-3,4-diol] | – | 77 | 42 | –
